From patent US20210138090A1, “uPAR targeting peptide for use in peroperative optical imaging of invasive cancer” (FLUOGUIDE A/S, priority 2014, published 2021)
One block for each compound: values may come before it. Square brackets hold non-standard residues; d marks the D form. Primed or numbered codes have the meaning given here. Peptide text beside a SMILES is read from it. * marks the point of attachment. ξ: configuration not given here. X1 = CC1(C)C(/C=C/C=C/C=C/C=C2\N(CCCCCC(=O)*)c3ccc4ccccc4c3C2(C)C)=[N+](CCCCS(=O)(=O)[O-])c2ccc3ccccc3c21; Cha = N[C@@H](CC1CCCCC1)C(=O)O; IRDye800CW′ = not defined here; ξR = N=C(N)NCCCC(N)C(=O)O; ξF = NC(Cc1ccccc1)C(=O)O; ξE = NC(CCC(=O)O)C(=O)O; ξD = NC(CC(=O)O)C(=O)O; AEEA = NCCOCCOCC(=O)O; ξS = NC(CO)C(=O)O

Key:
purified uPAR = purified uPAR (Homo sapiens, UniProt Q03405); test: binding affinity towards purified uPAR (first example)
Chain of purified uPAR (Q03405 23-305): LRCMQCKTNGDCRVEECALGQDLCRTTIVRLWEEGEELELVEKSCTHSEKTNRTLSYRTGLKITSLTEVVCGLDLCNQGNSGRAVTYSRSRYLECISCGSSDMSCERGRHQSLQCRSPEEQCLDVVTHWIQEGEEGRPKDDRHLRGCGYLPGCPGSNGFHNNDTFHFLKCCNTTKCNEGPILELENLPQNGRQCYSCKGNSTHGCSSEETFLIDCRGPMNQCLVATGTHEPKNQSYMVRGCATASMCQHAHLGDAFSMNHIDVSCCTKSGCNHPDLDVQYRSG

uPAR wt = uPAR wt (Homo sapiens, UniProt Q03405); test: SPR inhibition of uPAR binding to immobilized uPA
Chain of uPAR wt (Q03405 23-305 limits assumed): as the sequence (Q03405 23-305) above
Experimental: (§1) Covalent immobilization of purified human prouPA^S356A—was accomplished by injecting 12.5 μg/ml protein dissolved in 10 mM sodium acetate (pH 5.0) over a CM5 chip that had been pre-activated with NHS/EDC (N-ethyl-N′-[3-[…])propyl]-carbodiimide), aiming at a surface density of >5000 resonance units (RU) corresponding to 100 fmols/mm^2. After coupling the sensorchip was deactivated with 1 M ethanolamine. Binding of purified human uPAR as analyte was measured from 4 nM to 0.25 nM at 20° C. using 10 mM HEPES, 150 mM NaCl, 3 mM EDTA (pH 7.4) containing 0.05% (v/v) surfactant P20 as running buffer at a flow rate of 50 μl/min. In between cycles the sensorchip was regenerated by two consecutive 10-μl injections of 0.1 M acetic acid/HCl (pH 2.5) in 0.5 M NaCl. The inhibition of 3-fold dilutions of the compounds in question was measured for 4 nM uPAR with identical running conditions. All experiments were performed on a BiacoreT200 instrument.
(§2) For each inhibition peptide inhibition profile of uPAR binding to immobilized uPA there has been run a preceding standard curve and all calculations are based on the that standard curve.
(§3) Surface plasmon resonance (SPR) was applied to determine the […]-value of IRDye800-AE344 on the uPAR⋅uPA interaction in solution using a Biacore 3000 instrument essentially as described. In brief; pro-uPA^S356A, which is the natural ligand for uPAR. […] The analysis was carried out by measuring vobs of a fixed uPAR concentration (2 nM) incubated with a 3-fold dilution series of IRDye800-AE344 (ranging from 0.076 nM to 1.5 μM) for 300 sec at 20° C. with a flow rate of 50 μL/min. A standard curve was measured in parallel (2-fold dilution of uPAR covering 0.06 nM to 2 nM) including one repeated concentration point at the end to validate the biological integrity of the sensor chip. Running buffer contained 10 mM HEPES, 150 mM NaCl, 3 mM EDTA and 0.05% (v/v) surfactant P20, pH 7.4. The sensor chip was regenerated with two injections of 0.1 M acetic acid, 0.5 M NaCl. The parent nonamer peptide antagonist AE105 (Asp-Cha-Phe-D-Ser-D-Arg-Tyr-Leu-Trp-Ser-OH) was analyzed in parallel as positive control and the closed uPAR^H47C-N259C was used as negative control as its uPA binding cavity cannot accommodate AE105.

uPAR H47C-N259C = uPAR H47C-N259C (Homo sapiens, UniProt Q03405, H69C/N281C); test: SPR inhibition of uPAR binding to immobilized uPA, constrained uPAR variant (negative control); settings: SPR, constrained uPAR variant, negative control; read-out: IC50 uPAR H47C-N259C
Chain of uPAR H47C-N259C (Q03405 23-305 H69C/N281C limits assumed): as the sequence (Q03405 23-305) above, with H47C, N259C counted along it
Experimental: as §1, §2
as §3, with “Running buffer contained 10 mM HEPES, 150 mM NaCl, 3 mM EDTA and 0.05% (v/v) surfactant P20, pH 7.4. The sensor chip was regenerated with two injections of 0.1 M acetic acid, 0.5 M NaCl.” left out

U87MG tumours [1] = test: optical imaging of U87MG tumour-bearing mice, IVIS Lumina XR; format: in vivo; settings: 10 nmol i.v., 15 hr post injection; for max radiance for the tumors / tumor-to-background (TBR) ratio: IVIS Lumina XR; for tumor-to-background (TBR) ratio: n=10
Experimental: (§4) All animal experiments were performed under a protocol approved by the Animal Research Committee of the Danish Ministry of Justice. 5*10^6 U87MG cells were suspended in 200 μl PBS and inoculated on both flanks of the mouse. When the tumours reached an appropriate size the mice were imaged with AE105-Glu-Glu-ICG.
The mice were injected with 10 nmol of AE105-Glu-Glu-ICG or ICG i.v., and imaged 15 hr post injection. Before scan the mice were anaesthetized with 2% isofluran and positioned in a prone position. For imaging the IVIS Lumina XR and the acquisition software Living Image were used. The excitation filter was set to 710 nm and the emission filter was set in the ICG position. Acquisition was set to auto-settings to achieve the best acquisition as possible.
(§5) The TBR values were calculated by drawing a ROI over each tumor and place the background ROI in an area with constant background signal.

U87MG tumours [2] = test: optical imaging of U87MG tumour-bearing mice, Fluobeam camera; format: in vivo; settings: 10 nmol i.v.
Experimental: as §4
After imaging with IVIS Lumina XR the mouse was moved to a Fluobeam setup and imaged with appropriate acquisition time.
as §5

[3] = comparison of fluorescence intensity of ICG and ICG-Glu-Glu-AE105; format: physicochemical; settings: data not shown
[4] = tested on: orthotopic GBM (U-87 MG-luc2 cells); test: in vivo binding specificity in orthotopic GBM (blocking with AE120, scrambled probe); design: species or system mice; settings: 3 nmol, 1 h, no blocking
Experimental: The target specificity to uPAR was evaluated by two different methods: competitive blocking with the uPAR targeting peptide AE120 ((DChaFsrYLWSG)2-βAK) and IRDye800 conjugated to a scrambled peptide, AE354 (IRDye800CW-Glu-Glu-NH—CH2—CH2—O—CH2—CH2—O—CH2—CO—NH—CH2—CH2—O—CH2—CH2—O—CH2—CO-Asp-Cha-Glu-(D)Ser-(D)Arg-Tyr-Leu-Glu-Ser-OH) with similar peptide length as the active peptide. The competitive blocking dose of 1.4-2.8 mg AE120 was injected intraperitoneally 15-30 min prior to intravenous injection of 3 nmol IRDye800CW-AE344 and imaged at 1 h (n=5). The scrambled peptide was administered at 3 nmol and the animals were imaged after 1 h (n=4).
Images were analyzed and processed in ImageJ 1.52a, NIH, USA. Signal measurements were performed on the raw images generated by the Fluoptics system. Tumor signal was measured as a mean fluorescence intensity of the whole tumor and background signal was measured as the mean of a representative area with no tumor on the contralateral hemisphere. Presented pictures are contrast enhanced in ImageJ with the Contrast Enhancement (Saturated pixels: 0.3%).

Compound: CC1(C)C(/C=C/C=C/C=C/C=C2\N(CCCCS(=O)(=O)O)c3ccc4ccccc4c3C2(C)C)=[N+](CCCCS(=O)(=O)[O-])c2ccc3ccccc3c21 [ICG, indocyanine green, reference compound]
uptake in the tumor (U87MG tumours [1]): No specific uptake
max radiance for the tumors (U87MG tumours [1]): 7.51E+06±3.13E+05 radiance efficiency
tumor-to-background (TBR) ratio (U87MG tumours [1]): 1.04±0.04

Compound: CC(C)C[C@H](NC(=O)[C@H](Cc1ccc(O)cc1)NC(=O)C(CCCNC(=N)N)NC(=O)C(CO)NC(=O)C(Cc1ccccc1)NC(=O)[C@H](CC1CCCCC1)NC(=O)C(CC(=O)O)NC(=O)C(CCC(=O)O)NC(=O)C(CCC(=O)O)NC(=O)CCCCCN1\C(=C/C=C/C=C/C=C/C2=[N+](CCCCS(=O)(=O)[O-])c3ccc4ccccc4c3C2(C)C)C(C)(C)c2c1ccc1ccccc21)C(=O)N[C@@H](Cc1c[nH]c2ccccc12)C(=O)N[C@@H](CO)C(=O)O (stereo partly drawn) [ICG-Glu-Glu-AE105] (X1-[ξE][ξE][ξD][Cha][ξF][ξS][ξR]YLWS-OH)
IC50 (purified uPAR): ~80 nM
uptake in the tumor (U87MG tumours [1]): high uptake
max radiance for the tumors (U87MG tumours [1]): 3.43E+08±0.34E+08 radiance efficiency
tumor-to-background (TBR) ratio (U87MG tumours [1]): 3.52±0.167
TBR (U87MG tumours [2]): 3.58±0.29
decrease in fluorescence intensity for the conjugated probe compared with ICG [3]: 2 fold
IC50 (uPAR wt): 142 ± 13 nM
IC50 (uPAR H47C-N259C): 990 ± 50 nM

Compound: IRDye800CW-Glu-Glu-NH—CH2—CH2—O—CH2—CH2—O—CH2—CO—NH—CH2—CH2—O—CH2—CH2—O—CH2—CO-Asp-Cha-Glu-(D)Ser-(D)Arg-Tyr-Leu-Glu-Ser-OH ({IRDye800CW′}-EE[AEEA][AEEA]D[Cha]E[dS][dR]YLES-OH) [IRDye800CW-AE354, reference compound]
TBR [4]: 3.4
normalized TBR (ref: active probe) [4]: 0.52

Results, then the compound that gave them:

IC50 (purified uPAR): ~10 nM
IC50 (uPAR wt): 7.8 ± 1 nM
IC50 (uPAR H47C-N259C): 4500 ± 1500 nM
Compound: CC(C)C[C@H](NC(=O)[C@H](Cc1ccc(O)cc1)NC(=O)[C@@H](CCCNC(=N)N)NC(=O)[C@@H](CO)NC(=O)[C@H](Cc1ccccc1)NC(=O)[C@H](CC1CCCCC1)NC(=O)[C@@H](N)CC(=O)O)C(=O)N[C@@H](Cc1c[nH]c2ccccc12)C(=O)N[C@@H](CO)C(=O)O [AE105, Asp-Cha-Phe-(D)Ser-(D)Arg-Tyr-Leu-Trp-Ser-OH, reference compound]

IC50 (uPAR wt): 5.7 ± 0.5 nM
Compound: CC(C)C[C@H](NC(=O)[C@H](Cc1ccc(O)cc1)NC(=O)[C@@H](CCCNC(=N)N)NC(=O)[C@@H](CO)NC(=O)[C@H](Cc1ccccc1)NC(=O)[C@H](CC1CCCCC1)NC(=O)[C@H](CC(=O)O)NC(=O)COCCOCCNC(=O)COCCOCCNC(=O)[C@H](CCC(=O)O)NC(=O)[C@@H](N)CCC(=O)O)C(=O)N[C@@H](Cc1c[nH]c2ccccc12)C(=O)N[C@@H](CO)C(=O)O [AE344, Glu Glu O2Oc O2Oc Asp Cha Phe D-Ser D-Arg Tyr Leu Trp Ser-OH] (H-EE[AEEA][AEEA]D[Cha]F[dS][dR]YLWS-OH; N-terminus assumed)

IC50 (uPAR wt): 31.8 ± 1.5 nM
Compound: CC(C)C[C@H](NC(=O)[C@H](Cc1ccc(O)cc1)NC(=O)[C@@H](CCCNC(=N)N)NC(=O)[C@@H](CO)NC(=O)[C@H](Cc1ccccc1)NC(=O)[C@H](CC1CCCCC1)NC(=O)[C@H](CC(=O)O)NC(=O)COCCOCCNC(=O)COCCOCCNC(=O)[C@H](CCC(=O)O)NC(=O)[C@@H](N)CCC(=O)O)C(=O)N[C@@H](Cc1c[nH]c2ccccc12)C(=O)N[C@@H](CO)C(N)=O [AE345, Glu Glu O2Oc O2Oc Asp Cha Phe D-Ser D-Arg Tyr Leu Trp Ser-NH2] (H-EE[AEEA][AEEA]D[Cha]F[dS][dR]YLWS-NH2; N-terminus assumed)

IC50 (uPAR wt): 16.1 ± 0.9 nM
Compound: CC(C)C[C@H](NC(=O)[C@H](Cc1ccc(O)cc1)NC(=O)[C@@H](CCCNC(=N)N)NC(=O)[C@@H](CO)NC(=O)[C@H](Cc1ccccc1)NC(=O)[C@H](CC1CCCCC1)NC(=O)[C@H](CC(=O)O)NC(=O)COCCOCCNC(=O)COCCOCCN)C(=O)N[C@@H](Cc1c[nH]c2ccccc12)C(=O)N[C@@H](CO)C(=O)O [AE346, O2Oc O2Oc Asp Cha Phe D-Ser D-Arg Tyr Leu Trp Ser-OH] (H-[AEEA][AEEA]D[Cha]F[dS][dR]YLWS-OH; N-terminus assumed)

IC50 (uPAR wt): 3.5 ± 0.1 nM
Compound: CC(C)C[C@H](NC(=O)[C@H](Cc1ccc(O)cc1)NC(=O)[C@@H](CCCNC(=N)N)NC(=O)[C@@H](CO)NC(=O)[C@H](Cc1ccccc1)NC(=O)[C@H](CC1CCCCC1)NC(=O)[C@H](CC(=O)O)NC(=O)COCCOCCNC(=O)[C@H](CCC(=O)O)NC(=O)[C@@H](N)CCC(=O)O)C(=O)N[C@@H](Cc1c[nH]c2ccccc12)C(=O)N[C@@H](CO)C(N)=O [AE347, Glu Glu O2Oc Asp Cha Phe D-Ser D-Arg Tyr Leu Trp Ser-NH2] (H-EE[AEEA]D[Cha]F[dS][dR]YLWS-NH2; N-terminus assumed)

IC50 (uPAR wt): 6.7 ± 0.2 nM
Compound: CC(C)C[C@H](NC(=O)[C@H](Cc1ccc(O)cc1)NC(=O)[C@@H](CCCNC(=N)N)NC(=O)[C@@H](CO)NC(=O)[C@H](Cc1ccccc1)NC(=O)[C@H](CC1CCCCC1)NC(=O)[C@H](CC(=O)O)NC(=O)COCCOCCNC(=O)[C@@H](N)CCC(=O)O)C(=O)N[C@@H](Cc1c[nH]c2ccccc12)C(=O)N[C@@H](CO)C(N)=O [AE348, Glu O2Oc Asp Cha Phe D-Ser D-Arg Tyr Leu Trp Ser-NH2] (H-E[AEEA]D[Cha]F[dS][dR]YLWS-NH2; N-terminus assumed)

IC50 (uPAR wt): 12.5 ± 0.6 nM
Compound: CC(C)C[C@H](NC(=O)[C@H](Cc1ccc(O)cc1)NC(=O)[C@@H](CCCNC(=N)N)NC(=O)[C@@H](CO)NC(=O)[C@H](Cc1ccccc1)NC(=O)[C@H](CC1CCCCC1)NC(=O)[C@H](CC(=O)O)NC(=O)[C@H](CCC(=O)O)NC(=O)[C@@H](N)CCC(=O)O)C(=O)N[C@@H](Cc1c[nH]c2ccccc12)C(=O)N[C@@H](CO)C(=O)O [AE349, Glu Glu Asp Cha Phe D-Ser D-Arg Tyr Leu Trp Ser-OH] (H-EED[Cha]F[dS][dR]YLWS-OH; N-terminus assumed)
